Measured values from patent US20230077362A1 (CORTEVA AGRISCIENCE LLC, priority 2019, published 2023).

Tests used:
[1] = test system: Beet Armyworm (Spodoptera exigua) ("BAW"), second instar larvae; test: Bioassay on beet armyworm (BAW), 128-well diet tray assay; assay type: in vivo; conditions: Spodoptera exigua, read-out: BAW (Biological Results, rating)
Method: (§1) Certain molecules disclosed in this document were tested against BAW and CL using procedures described in the following examples. In the reporting of the results, the “BAW & CL Rating Table” was used (See Table Section).
(§2) Trays were covered with a clear self-adhesive cover and held at 25° C., 14:10 light-dark cycle for five to seven days. Percent mortality was recorded for the larvae in each well; activity in the eight wells was then averaged. The results are indicated in the table entitled “Table ABC: Biological Results” (See Table Section).

[2] = test system: Cabbage Looper (Trichoplusia ni) ("CL"), second instar larvae; test: Bioassay on cabbage looper (CL), 128-well diet tray assay; assay type: in vivo; conditions: Trichoplusia ni, read-out: CL (Biological Results, rating)
Method: as §1, §2

| SMILES | pest or weed control at 50 µg/cm2 [1] [%] | pest or weed control at 50 µg/cm2 [2] [%] |
| --- | --- | --- |
| COc1ccc(C(C)C)c(N2C(=O)CS/C2=N\C(=O)Nc2ccc(-c3ncn(-c4ccc(OC(F)(F)C(F)(F)F)cc4)n3)cc2F)c1 [Compound J27, (Z)-1-(2-Fluoro-4-(1-(4-(perfluoroethoxy)phenyl)-1H-1,2,4-triazol-3-yl)phenyl)-3-(3-(2-isopropyl-5-methoxyphenyl)-4-oxothiazolidin-2-ylidene)urea] | 50 to 100 | 50 to 100 |
| COc1cc(-c2ncn(-c3ccc(OC(F)(F)C(F)(F)F)cc3)n2)ccc1NC(=O)/N=C1\SCC(=O)N1c1cc(C)ccc1C(C)C [Compound J28, (Z)-1-(3-(2-Isopropyl-5-methylphenyl)-4-oxothiazolidin-2-ylidene)-3-(2-methoxy-4-(1-(4-(perfluoroethoxy)phenyl)-1H-1,2,4-triazol-3-yl)phenyl)urea] | 50 to 100 | 50 to 100 |
| COc1ccc(C(C)C)c(N2C(=O)CS/C2=N\C(=O)Nc2ccc(-c3ncn(-c4ccc(OC(F)(F)C(F)(F)F)cc4)n3)cc2OC)c1 [Compound J29, (Z)-1-(3-(2-Isopropyl-5-methoxyphenyl)-4-oxothiazolidin-2-ylidene)-3-(2-methoxy-4-(1-(4-(perfluoroethoxy)phenyl)-1H-1,2,4-triazol-3-yl)phenyl)urea] | 50 to 100 | 50 to 100 |
| Cc1ccc(C(F)(F)F)c(N2C(=O)CS/C2=N\C(=O)Nc2ccc(-c3ncn(-c4ccc(OC(F)(F)F)cc4)n3)cc2F)c1 [Compound J30, (Z)-1-(2-Fluoro-4-(1-(4-(trifluoromethoxy)phenyl)-1H-1,2,4-triazol-3-yl)phenyl)-3-(3-(5-methyl-2-(trifluoromethyl)phenyl)-4-oxothiazolidin-2-ylidene)urea] | 50 to 100 | 50 to 100 |
| Cc1ccc(OCC(F)(F)F)c(N2C(=O)CS/C2=N\C(=O)Nc2ccc(-c3ncn(-c4ccc(OC(F)(F)F)cc4)n3)cc2F)c1 [Compound J31, (Z)-1-(2-Fluoro-4-(1-(4-(trifluoromethoxy)phenyl)-1H-1,2,4-triazol-3-yl)phenyl)-3-(3-(5-methyl-2-(2,2,2-trifluoroethoxy)phenyl)-4-oxothiazolidin-2-ylidene)urea] | 50 to 100 | 50 to 100 |
| Cc1ccc(C(F)(F)F)c(N2C(=O)C(Cl)S/C2=N\C(=O)Nc2ccc(-c3ncn(-c4ccc(OC(F)(F)F)cc4)n3)cc2F)c1 (stereo not drawn) [Compound J34, (Z)-1-(5-Chloro-3-(5-methyl-2-(trifluoromethyl)phenyl)-4-oxothiazolidin-2-ylidene)-3-(2-fluoro-4-(1-(4-(trifluoromethoxy)phenyl)-1H-1,2,4-triazol-3-yl)phenyl)urea] | 50 to 100 | 50 to 100 |
| Cc1ccc(OCCC(F)(F)F)c(N2C(=O)C(Cl)S/C2=N\C(=O)Nc2ccc(-c3ncn(-c4ccc(OC(F)(F)F)cc4)n3)cc2F)c1 (stereo not drawn) [Compound J36, (Z)-1-(5-Chloro-3-(5-methyl-2-(3,3,3-trifluoropropoxy)phenyl)-4-oxothiazolidin-2-ylidene)-3-(2-fluoro-4-(1-(4-(trifluoromethoxy)phenyl)-1H-1,2,4-triazol-3-yl)phenyl)urea] | 50 to 100 | 50 to 100 |
| COc1ccc(C(C)C)c(N2C(=O)CS/C2=N\C(=O)Nc2ccc(-c3ncn(-c4ccc(OC(F)(F)F)cc4)n3)cc2Cl)c1 [Compound J37, (Z)-1-(2-Chloro-4-(1-(4-(trifluoromethoxy)phenyl)-1H-1,2,4-triazol-3-yl)phenyl)-3-(3-(2-isopropyl-5-methoxyphenyl)-4-oxothiazolidin-2-ylidene)urea] | 50 to 100 | 50 to 100 |
| Cc1ccc(C(C)C)c(N2C(=O)CS/C2=N\C(=O)Nc2ccc(-c3ncn(-c4ccc(OC(F)(F)F)cc4)n3)cc2Cl)c1 [Compound J38, (Z)-1-(2-Chloro-4-(1-(4-(trifluoromethoxy)phenyl)-1H-1,2,4-triazol-3-yl)phenyl)-3-(3-(2-isopropyl-5-methylphenyl)-4-oxothiazolidin-2-ylidene)urea] | 50 to 100 | 50 to 100 |
| Cc1ccc(C(F)(F)F)c(N2C(=O)CS/C2=N\C(=O)Nc2ccc(-c3ncn(-c4ccc(OC(F)(F)F)cc4)n3)cc2Cl)c1 [Compound J39, (Z)-1-(2-Chloro-4-(1-(4-(trifluoromethoxy)phenyl)-1H-1,2,4-triazol-3-yl)phenyl)-3-(3-(5-methyl-2-(trifluoromethyl)phenyl)-4-oxothiazolidin-2-ylidene)urea] | 50 to 100 | 50 to 100 |
| Cc1ccc(OCC(F)(F)F)c(N2C(=O)CS/C2=N\C(=O)Nc2ccc(-c3ncn(-c4ccc(OC(F)(F)F)cc4)n3)cc2Cl)c1 [Compound J40, (Z)-1-(2-Chloro-4-(1-(4-(trifluoromethoxy)phenyl)-1H-1,2,4-triazol-3-yl)phenyl)-3-(3-(5-methyl-2-(2,2,2-trifluoroethoxy)phenyl)-4-oxothiazolidin-2-ylidene)urea] | 50 to 100 | 50 to 100 |
| O=C(/N=C1\SCC(=O)N1c1cc(Cl)ccc1C(F)(F)F)Nc1ccc(-c2ncn(-c3ccc(OC(F)(F)F)cc3)n2)cc1Cl [Compound J42, (Z)-1-(3-(5-Chloro-2-(trifluoromethyl)phenyl)-4-oxothiazolidin-2-ylidene)-3-(2-chloro-4-(1-(4-(trifluoromethoxy)phenyl)-1H-1,2,4-triazol-3-yl)phenyl)urea] | 50 to 100 | 50 to 100 |
| CCCc1ccc(OC)cc1N1C(=O)CS/C1=N\C(=O)Nc1ccc(-c2ncn(-c3ccc(OC(F)(F)F)cc3)n2)cc1F [Compound J43, (Z)-1-(2-Fluoro-4-(1-(4-(trifluoromethoxy)phenyl)-1H-1,2,4-triazol-3-yl)phenyl)-3-(3-(5-methoxy-2-propylphenyl)-4-oxothiazolidin-2-ylidene)urea] | 50 to 100 | 50 to 100 |
| CCCCc1ccc(C)cc1N1C(=O)CS/C1=N\C(=O)Nc1ccc(-c2ncn(-c3ccc(OC(F)(F)F)cc3)n2)cc1F [Compound J44, (Z)-1-(3-(2-Butyl-5-methylphenyl)-4-oxothiazolidin-2-ylidene)-3-(2-fluoro-4-(1-(4-(trifluoromethoxy)phenyl)-1H-1,2,4-triazol-3-yl)phenyl)urea] | 50 to 100 | 50 to 100 |
| CCCCc1ccc(OC)cc1N1C(=O)CS/C1=N\C(=O)Nc1ccc(-c2ncn(-c3ccc(OC(F)(F)F)cc3)n2)cc1F [Compound J45, (Z)-1-(3-(2-Butyl-5-methoxyphenyl)-4-oxothiazolidin-2-ylidene)-3-(2-fluoro-4-(1-(4-(trifluoromethoxy)phenyl)-1H-1,2,4-triazol-3-yl)phenyl)urea] | 50 to 100 | 50 to 100 |
| CC(C)c1ccc(Cl)cc1N1C(=O)CS/C1=N\C(=O)Nc1ccc(-c2ncn(-c3ccc(OC(F)(F)F)cc3)n2)cc1F [Compound J46, (Z)-1-(3-(5-Chloro-2-isopropylphenyl)-4-oxothiazolidin-2-ylidene)-3-(2-fluoro-4-(1-(4-(trifluoromethoxy)phenyl)-1H-1,2,4-triazol-3-yl)phenyl)urea] | 50 to 100 | 50 to 100 |
| Cc1ccc(CC(C)C)c(N2C(=O)CS/C2=N\C(=O)Nc2ccc(-c3ncn(-c4ccc(OC(F)(F)F)cc4)n3)cc2F)c1 [Compound J47, (Z)-1-(2-Fluoro-4-(1-(4-(trifluoromethoxy)phenyl)-1H-1,2,4-triazol-3-yl)phenyl)-3-(3-(2-isobutyl-5-methylphenyl)-4-oxothiazolidin-2-ylidene)urea] | 50 to 100 | 50 to 100 |
| CCC(C)c1ccc(OC)cc1N1C(=O)CS/C1=N\C(=O)Nc1ccc(-c2ncn(-c3ccc(OC(F)(F)F)cc3)n2)cc1F (stereo not drawn) [Compound J48, (Z)-1-(3-(2-(sec-Butyl)-5-methoxyphenyl)-4-oxothiazolidin-2-ylidene)-3-(2-fluoro-4-(1-(4-(trifluoromethoxy)phenyl)-1H-1,2,4-triazol-3-yl)phenyl)urea] | 50 to 100 | 50 to 100 |
| COC(C)c1ccc(C)cc1N1C(=O)CS/C1=N\C(=O)Nc1ccc(-c2ncn(-c3ccc(OC(F)(F)F)cc3)n2)cc1F (stereo not drawn) [Compound J49, (Z)-1-(2-Fluoro-4-(1-(4-(trifluoromethoxy)phenyl)-1H-1,2,4-triazol-3-yl)phenyl)-3-(3-(2-(1-methoxyethyl)-5-methylphenyl)-4-oxothiazolidin-2-ylidene)urea] | 50 to 100 | 50 to 100 |
| O=C(/N=C1\SCC(=O)N1c1cc(C(F)(F)F)ccc1C(F)(F)F)Nc1ccc(-c2ncn(-c3ccc(OC(F)(F)F)cc3)n2)cc1F [Compound J50, (Z)-1-(3-(2,5-Bis(trifluoromethyl)phenyl)-4-oxothiazolidin-2-ylidene)-3-(2-fluoro-4-(1-(4-(trifluoromethoxy)phenyl)-1H-1,2,4-triazol-3-yl)phenyl)urea] | 50 to 100 | 50 to 100 |
| CCC(C)Oc1ccc(C)cc1N1C(=O)CS/C1=N\C(=O)Nc1ccc(-c2ncn(-c3ccc(OC(F)(F)F)cc3)n2)cc1F (stereo not drawn) [Compound J51, (Z)-1-(3-(2-(sec-Butoxy)-5-methylphenyl)-4-oxothiazolidin-2-ylidene)-3-(2-fluoro-4-(1-(4-(trifluoromethoxy)phenyl)-1H-1,2,4-triazol-3-yl)phenyl)urea] | 50 to 100 | 50 to 100 |
